Laboratory results as given in patent publication US20110212909A1, “Use of Ginsenoside Compound K in the Preparation of a Medicament for the Prevention and Treatment of Atherosclerosis” (priority 2008, published 2011).
Marks after values point to notes of the source that are not given here.

What was measured:
[1] = tested on: macrophage-derived foam cells of rat abdominal cavity; experiment: Assay of amount of TC and CE in ox-LDL induced macrophage-derived foam cells; assay type: cell-based; conditions: 25 μM, 48 hours, rat foam cells, x ± s, n = 5
Protocol: 1. Experiment animal: SD rats, male, 200-250 g, bought from the third Military Medical University Experiment Animal Center.
2. Reagents: RPMI 1640 culture medium free of phenol red bought from Invitrogen company; LDL (115 mg/mL) bought from Peking Union Medical College; total cholesterol kit and free cholesterol kit bought from Shanghai Mind Bioengineering Limited Company; ginsenoside compound K (hereinafter being called C-K for short. White powders, purity 99%), provided by Kunming Nuowei Jinshen Bioengineering limited company supply (batch number: NTGA070521, details see China invention patent 200710066011. X “a method of preparing rare ginsenoside compound K by streptomycete fermentation of Sanchi saponins”).
LDL was placed into PBS comprising 10 μM Cu^2+, dialysed at 37° C. for 12 h, then was placed into PBS comprising 0.01% EDTA, and dialysed at 4° C. for 24 hours before stopping oxidization, then was subjected to filtration sterilization, and stored for use.
4. Culture of macrophage and establishment of foam cells model (available literature: Jia Yi, Li Xiaohui, Xing Mao, Hei Xuefeng, Liu Ya, He Cuiyao. Studies on affect of various combinations of 3 sorts of monomers in total panax notoginsenosides on formation of mouse macrophage-derived foam cells. Journal of China Pharmacy, 2008, 19 (2), 881-883.)
each rat were intraperitoneally injected with 2 mL RPMI 1640 culture solution free of serum and phenol red, and it was sacrificed by cervical dislocation after 20 minutes, and was soaked in 75% ethanol for 10 minutes, then rat's belly was cut open, and fluids in abdominal cavity were collected, and centrifugated at 750 r/min for 5 minutes, and then cells were collected, and cells concentrations were adjusted to […] by using RPMI 1640 culture solution which were free of phenol red and comprised 10% Fetal Calf Serum. 10 pieces of 6 wells plate was added 1 mL cells suspension per well, and was placed into an incubator of 5% CO2 at 37 °C, and cultured for two hours, then supernatant was discarded, and nonadhesive cells was washed by using PBS. Original culture medium was discarded. Culture was carried out for 48 hours after adding 5 mL culture medium comprising 20 mg/L ox-LDL, and thereby foam cells were formed.
[…] were divided into ox-LDL model group, pyrrolidine dithiocarbamate (PDTC) (drugs source: Sigma), control group and C-K interference group. Each group had 5 pieces of plates. […]
Culture solution was aspirated, and lipid in foam cells was extracted by Folch method (reference: Folch J et al, A simple method for the isolation and purification of total lipides from animal tissues. J Biol Chem, 1957, 226 (1): 497-509), according to direction for use of kit.
Data was expressed as x±s, and variance analysis was carried out between groups by SPSS 13.0 software.

CD36 mRNA = experiment: Real-time quantitative PCR of CD36 mRNA in foam cells; assay type: cell-based; conditions: 25 μM, rat foam cells
Protocol: FIG. 1 provides effects of a ginsenoside compound K (C-K, 25 μM) and pyrrolidine dithiocarbamate (PDTC, 25 μM) on the foam cell CD36 mRNA expression. a: P<0.05, vs foam cell group; b: P<0.05, vs PDTC. PDTC (25 μM) C-K (25 μM) (n=5).
(1) Material and reagents (the same as Example 2).
(2) real-time quantitative PCR analysis (a reference method: Zhang Yiguan, Li Xiaohui, Fan Jishan, Zhang Haigang, Li Shuhui, Liao Wenqiang, Pang Yan, Jia Yi. Total panax notoginsenosides suppress atherosclerosis formation in rats by means of antiinflammatory and blood fat regulating action. Progress in Modern Biomedicine. 2007, 27(11): 1601-1607).
Data was expressed as x±s, variance analysis were carried out between groups by SPSS 13.0 software.

## S=C(S)N1CCCC1 [PDTC, pyrrolidine dithiocarbamate, reference compound]
[1]; ox-LDL model group 15.24 ± 2.38
  CE in foam cells: 30.63 ± 3.17^a
[1]; ox-LDL model group 59.56 ± 2.96
  CE/TC in foam cells: 50.29 ± 3.54^a %
[1]; ox-LDL model group 87.20 ± 2.19
  TC in foam cells: 60.81 ± 2.62^a
CD36 mRNA
  change of CD36 mRNA expression in foam cells compared with model group: increased expression
